Data published in the NIST ThermoML archive (doi:10.1016/j.jct.2005.01.002).

Test: xn = mol fraction of the nth substance listed
Settings: 101 kPa, Liquid

CCCCCOCCCCC [dipentyl ether] + CN(C)C=O
mass density [kg/m3]
Settings | 298.15 K | 313.15 K | 328.15 K | 343.15 K | 358.15 K
x2 = 0.0416 | 781.66 | 771.34 | 759.02 | 746.76 | 734.14
x2 = 0.1163 | 787.12 | 776.77 | 764.39 | 752.03 | 739.41
x2 = 0.1609 | 790.65 | 780.27 | 767.84 | 755.43 | 742.78
x2 = 0.217 | 795.39 | 784.95 | 772.41 | 759.94 | 747.25
x2 = 0.2456 | 797.91 | 787.44 | 774.88 | 762.38 | 749.67
x2 = 0.3011 | 803.14 | 792.61 | 779.97 | 767.39 | 754.63
x2 = 0.3542 | 808.53 | 797.94 | 785.21 | 772.57 | 759.74
x2 = 0.4097 | 814.65 | 803.99 | 791.14 | 778.42 | 765.54
x2 = 0.457 | 820.29 | 809.57 | 796.61 | 783.81 | 770.89
x2 = 0.5002 | 825.83 | 815.04 | 801.98 | 789.12 | 776.12
x2 = 0.5187 | 828.35 | 817.52 | 804.42 | 791.51 | 778.49
x2 = 0.5486 | 832.57 | 821.67 | 808.5 | 795.54 | 782.47
x2 = 0.6123 | 842.35 | 831.31 | 817.97 | 804.87 | 791.69
x2 = 0.6525 | 849.15 | 837.99 | 824.54 | 811.37 | 798.06
x2 = 0.7141 | 860.63 | 849.31 | 835.68 | 822.37 | 808.9
x2 = 0.7678 | 872.03 | 860.55 | 846.65 | 833.17 | 819.65
x2 = 0.8272 | 886.29 | 874.58 | 860.43 | 846.76 | 833.11
x2 = 0.8585 | 894.75 | 882.91 | 868.61 | 854.86 | 840.93
x2 = 0.9152 | 911.86 | 899.77 | 885.03 | 871.15 | 857.02
x2 = 0.9534 | 924.96 | 912.63 | 897.96 | 883.55 | 869.17

CCCOCCC [dipropyl ether] + CN(C)C=O
mass density [kg/m3]
Settings | 298.15 K | 313.15 K | 328.15 K | 343.15 K | 358.15 K
x2 = 0.0499 | 749.01 | 735.06 | 720.89 | 706.81 | 692.16
x2 = 0.1072 | 756.74 | 742.84 | 728.72 | 714.64 | 699.96
x2 = 0.1515 | 763.14 | 749.17 | 735.12 | 720.81 | 706.1
x2 = 0.2129 | 772.12 | 758.15 | 743.94 | 729.67 | 714.89
x2 = 0.2528 | 778.22 | 764.23 | 749.93 | 735.72 | 720.91
x2 = 0.3142 | 787.82 | 773.92 | 759.52 | 745.25 | 730.4
x2 = 0.3508 | 793.89 | 780 | 765.58 | 751.24 | 736.39
x2 = 0.3895 | 800.55 | 786.59 | 772.07 | 757.74 | 742.88
x2 = 0.4353 | 808.57 | 794.67 | 780.13 | 765.72 | 750.85
x2 = 0.4788 | 816.49 | 802.63 | 788.03 | 773.58 | 758.7
x2 = 0.5053 | 821.46 | 807.64 | 793.01 | 778.54 | 763.66
x2 = 0.5243 | 825.12 | 811.32 | 796.66 | 782.18 | 767.29
x2 = 0.5454 | 829.23 | 815.46 | 800.8 | 786.3 | 771.4
x2 = 0.6019 | 840.66 | 826.99 | 812.28 | 797.75 | 782.85
x2 = 0.6475 | 850.32 | 836.74 | 821.98 | 807.43 | 792.53
x2 = 0.7054 | 863.22 | 849.75 | 834.83 | 820.5 | 805.64
x2 = 0.7502 | 873.74 | 860.32 | 845.39 | 830.97 | 816.13
x2 = 0.79 | 883.5 | 870.11 | 854.95 | 840.56 | 825.74
x2 = 0.8514 | 899.37 | 886.42 | 871.19 | 856.91 | 842.07
x2 = 0.9075 | 914.86 | 902.16 | 886.61 | 872.33 | 857.58
x2 = 0.9594 | 933.76 | 921.32 | 905.81 | 891.47 | 876.94
